System: 323965-272-R-J2-PDC complex spheroid viability
Assay: Anticancer human tumor 323965-272-R-J2-PDC patient-derived pancreatic carcinoma cell line growth inhibition [CLK]
Conditions: for IC50: curve of first compound; for viability, T/C: stronger effect = lower value
Excerpt: A high-throughput screen of multi-cell type tumor spheroids was designed to identify active combinations of […] and targeted small molecules. Complex spheroids include a stromal component modeled by human endothelial cells (HUVEC) and fibroblasts modeled by human mesenchymal stem cells (MSCs). The concentration ranges selected for each drug and investigational agent were based upon clinically achievable concentrations if the clinical Cmax of the agent was known.
Compounds. The drugs and investigational agents: cirtuvivint (SM08502; NSC835563), CC-671 (NSC850746), vemurafenib (NSC761431), tapotoclax (NSC804041), sotorasib (NSC818433), adagrasib (NSC831453), MRTX-1133 (NSC836407), BAY2416964 (NSC825713), copanlisib (NSC816437), inavolisib (NSC800729), abemaciclib (NSC768073), osimertinib (NSC779217), entinostat (NSC756642), eltanexor (KPT-8602, NSC794443), venetoclax (NSC766270), ceralasertib (NSC777638), bortezomib (NSC756655), olaparib (NSC753686), talazoparib (NSC767125), alisertib (NSC759677), peposertib (NSC802822), gemcitabine (NSC613327), 5-fluorouracil (NSC19893), SN-38 (NSC673596), oxaliplatin (NSC266046), paclitaxel (NSC125973), and doxorubicin (NSC123127), were obtained from the National Cancer Institute (NCI) Developmental Therapeutics Program Chemical Repository. The FDA-approved anticancer drug set is available from the Developmental Therapeutics Program at https://dtp.cancer.gov/organization/dscb/obtaining/available plates.htm. […] The stock solutions were prepared in dimethyl sulfoxide (DMSO, Sigma-Aldrich, St. Louis, MO, cat. D2650), except for the platinum complexes which were prepared in saline (Quality Biological, Gaithersburg, MD, cat. 114-055-101), at 800-fold the tested concentration and stored at -70 degrees C prior to their use. All drugs and investigational agents were tested over a range starting from a high concentration at or near the clinical Cmax and decreasing in half-log increments. If the clinical Cmax for an agent had not been determined, the highest concentration tested was 10 microM.
Cell Culture. All cells were maintained in an incubator at 37 degrees C and 5% CO2 with 95% humidity. The PDC lines were cultured according to standard operating procedures established by the NCI PDMR. Briefly, all PDCs were thawed and cultured in Matrigel-coated flasks prepared with a working solution of 1X Ham's F-12 nutrient mix, without supplementation (Invitrogen, Waltham, MA, cat. 11765054), 100 U/mL penicillin-streptomycin (Invitrogen, cat. 15140122), and 2.5% Matrigel (Corning Inc., Corning, NY, cat. 354248) for the first three passages. The 947758-054-R-J2-PDC line was cultured in 6B/Colon 1A media, which includes advanced DMEM/F-12 (Thermo Fisher Scientific, cat. 12634028), 10 mM HEPES (Thermo Fisher Scientific, cat. 15630080), 1X GlutaMAX supplement (Thermo Fisher Scientific, cat. 35050061), 0.1 mg/mL primocin (InvivoGen, cat. ant-pm-2), 10% defined fetal bovine serum, heat inactivated (HyClone Laboratories Inc., cat. SH30070.03HI), 1.25 mM N-Acetyl-L-cysteine (Sigma-Aldrich, cat. A9165), 10 mM nicotinamide (Sigma-Aldrich, cat. N0636), 1X B-27 supplement (Thermo Fisher Scientific, cat. 17504044), 1X N-2 supplement (Thermo Fisher Scientific, cat. 17502048), and 10 microM Y-27632 dihydrochloride (Tocris Bioscience, cat. 1254). The 876862-298-R-J1-PDC was cultured in 6E media, which includes all 6B/Colon 1A media components plus 50% L-WRN conditioned media (ATCC, cat. CRL-3276), 50 ng/mL recombinant human EGF recombinant protein (hEGF; Thermo Fisher Scientific, cat. PHG0311), 10 ng/mL recombinant human fibroblast growth factor 10 (hGFG-10; PeproTech, cat. 100-26), 1 ng/mL recombinant human fibroblast growth factor 2 (hFGF-2; PeproTech, cat. 100-18B), and 1 µM prostaglandin E2 (PGE2; Tocris, cat. 2296). The 227483-062-R1-J1-PDC line was cultured in Panc media, containing all 6E components except hFGF-2, with the addition of 500 nM SB-431542 (Selleckchem, cat. S1067) and 10 nM gastrin (Tocris, cat. 3006). […]

[1] = second compound 0.0316 µM, first compound 0.0316 µM
[2] = second compound 0.0316 µM, first compound 0.1 µM
[3] = second compound 0.0316 µM, first compound 0.316 µM
[4] = second compound 0.0316 µM, first compound 1 µM
[5] = second compound 0.0316 µM, first compound 3.16 µM
[6] = second compound 0.0316 µM, first compound 10 µM
[7] = second compound 0.1 µM, first compound 0.0316 µM
[8] = second compound 0.1 µM, first compound 0.1 µM
[9] = second compound 0.1 µM, first compound 0.316 µM
[10] = second compound 0.1 µM, first compound 1 µM
[11] = second compound 0.1 µM, first compound 3.16 µM
[12] = second compound 0.1 µM, first compound 10 µM
[13] = second compound 0.316 µM, first compound 0.0316 µM
[14] = second compound 0.316 µM, first compound 0.1 µM
[15] = second compound 0.316 µM, first compound 0.316 µM
[16] = second compound 0.316 µM, first compound 1 µM
[17] = second compound 0.316 µM, first compound 3.16 µM
[18] = second compound 0.316 µM, first compound 10 µM
[19] = second compound 1 µM, first compound 0.0316 µM
[20] = second compound 1 µM, first compound 0.1 µM
[21] = second compound 1 µM, first compound 0.316 µM
[22] = second compound 1 µM, first compound 1 µM
[23] = second compound 1 µM, first compound 3.16 µM
[24] = second compound 1 µM, first compound 10 µM
[25] = second compound 3.16 µM, first compound 0.0316 µM
[26] = second compound 3.16 µM, first compound 0.1 µM
[27] = second compound 3.16 µM, first compound 0.316 µM
[28] = second compound 3.16 µM, first compound 1 µM
[29] = second compound 3.16 µM, first compound 3.16 µM
[30] = second compound 3.16 µM, first compound 10 µM
[31] = second compound 10 µM, first compound 0.0316 µM
[32] = second compound 10 µM, first compound 0.1 µM
[33] = second compound 10 µM, first compound 0.316 µM
[34] = second compound 10 µM, first compound 1 µM
[35] = second compound 10 µM, first compound 3.16 µM
[36] = second compound 10 µM, first compound 10 µM
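Further: spheroids exposed to agents for seven days before readout.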
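Wherever viability, T/C is given: percent of DMSO vehicle control wells so 100% = untreated growth.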

Work on `CCCS(=O)(=O)Nc1ccc(F)c(C(=O)c2c[nH]c3ncc(-c4ccc(Cl)cc4)cc23)c1F` + CN1CCN(c2cc(C(=O)Nc3cc4cc(-c5cnn(C)c5)ccc4cn3)ccn2)CC1 yielded an IC50 (second compound 0.0316 µM) of over 10000 nM, an IC50 (second compound 0.1 µM) of over 10000 nM and an IC50 (second compound 0.316 µM) of under 31.6 nM. For the same molecule, the IC50 (second compound 1 µM) was under 31.6 nM, the IC50 (second compound 3.16 µM) was under 31.6 nM and the IC50 (second compound 10 µM) was under 31.6 nM. The viability, T/C [1] was 97.9%, the viability, T/C [2] was 102% and the viability, T/C [3] was 102%. The viability, T/C [4] was 111%, the viability, T/C [5] was 101% and the viability, T/C [6] was 78.7%. The viability, T/C [7] was 68.4%, the viability, T/C [8] was 68.1% and the viability, T/C [9] was 80.1%. It also gave a viability, T/C [10] of 83%, a viability, T/C [11] of 84.7% and a viability, T/C [12] of 66.5%. It also gave a viability, T/C [13] of 28.1%, a viability, T/C [14] of 26.3% and a viability, T/C [15] of 30.5%. The viability, T/C [16] was 34.7%, the viability, T/C [17] was 32.3% and the viability, T/C [18] was 35%. It also gave a viability, T/C [19] of 4.7%, a viability, T/C [20] of 3.95% and a viability, T/C [21] of 3.77%. The viability, T/C [22] was 4.38%, the viability, T/C [23] was 4.19% and the viability, T/C [24] was 6.54%. It also gave a viability, T/C [25] of 4.04%, a viability, T/C [26] of 4.11% and a viability, T/C [27] of 4.16%. The viability, T/C [28] was 4.42%, the viability, T/C [29] was 5.61% and the viability, T/C [30] was 6.54%. For the same molecule, the viability, T/C [31] was 4.15%, the viability, T/C [32] was 4.79% and the viability, T/C [33] was 4.2%. The viability, T/C [34] was 4.29%, the viability, T/C [35] was 4.87% and the viability, T/C [36] was 5.79%.
`COC1C=CCC(C)C(C)S(=O)(=O)NC(=O)c2ccc3c(c2)N(CC2CCC21)CC1(CCCc2cc(Cl)ccc21)CO3` (centres undefined) + CN1CCN(c2cc(C(=O)Nc3cc4cc(-c5cnn(C)c5)ccc4cn3)ccn2)CC1 showed an IC50 (second compound 0.0316 µM) of 841 nM, an IC50 (second compound 0.1 µM) of 456 nM and an IC50 (second compound 0.316 µM) of under 31.6 nM. For the same molecule, the IC50 (second compound 1 µM) was under 31.6 nM, the IC50 (second compound 3.16 µM) was under 31.6 nM and the IC50 (second compound 10 µM) was under 31.6 nM. For the same molecule, the viability, T/C [1] was 97.8%, the viability, T/C [2] was 92.1% and the viability, T/C [3] was 62%. It also gave a viability, T/C [4] of 47.8%, a viability, T/C [5] of 30% and a viability, T/C [6] of 12.3%. The viability, T/C [7] was 72.5%, the viability, T/C [8] was 67% and the viability, T/C [9] was 53.5%. For the same molecule, the viability, T/C [10] was 39.1%, the viability, T/C [11] was 28.9% and the viability, T/C [12] was 10.4%. For the same molecule, the viability, T/C [13] was 27.5%, the viability, T/C [14] was 26.2% and the viability, T/C [15] was 21.1%. It also gave a viability, T/C [16] of 17.7%, a viability, T/C [17] of 15.1% and a viability, T/C [18] of 9.86%. For the same molecule, the viability, T/C [19] was 3.35%, the viability, T/C [20] was 4.19% and the viability, T/C [21] was 4.18%. For the same molecule, the viability, T/C [22] was 3.31%, the viability, T/C [23] was 1.96% and the viability, T/C [24] was 2.43%. The viability, T/C [25] was 3.51%, the viability, T/C [26] was 3.78% and the viability, T/C [27] was 3.33%. For the same molecule, the viability, T/C [28] was 3.25%, the viability, T/C [29] was 2.59% and the viability, T/C [30] was 2.44%. The viability, T/C [31] was 5.25%, the viability, T/C [32] was 3.97% and the viability, T/C [33] was 3.84%. The viability, T/C [34] was 3.47%, the viability, T/C [35] was 2.83% and the viability, T/C [36] was 2.37%.

Source: PubChem BioAssay AID2060619 (Molecular Pharmacology Branch, DTP, NCI, 2025)
